The text below walks through data of patent publication US20130231276A1, “Combination Of An Aminoacyl-tRNA Synthetase Inhibitor With A Further Antibacterial Agent For Attenuating Multiple Drug Resistance” (BROWN UNIVERSITY, priority 2010, published 2013).

Experiment [1] has as its system Streptomyces coelicolor M600. Nature of the experiment: MIC on Difco Nutrient Agar with sub-lethal indolmycin, strain M600 (wild-type). The class given is cell-based. The settings on record: for MIC: Streptomyces coelicolor, M600, 48 h, 30° C., 48 hours. As to the method: (§1) Changes in the susceptibility of S. coelicolor to three clinically used antibacterial drugs (chloramphenicol, erythromycin, and vancomycin) grown in the presence of indolmycin were assessed. The effects of antibiotic combinations were assessed in wild-type S. coelicolor, which has an auxiliary, indolmycin-resistant isoform of tryptophanyl-tRNA synthetase (TrpRS1). We also examined these combinations in three other indolmycin-resistant strains of S. coelicolor—a trpRS2 null strain (B728) (8) and two strains lacking trpRS1 with resistance conferring point mutations in trpRS2 (B734 with TrpRS2 H48N and B735 with TrpRS2 H48Q) (9). These strains were selected because the strong antibacterial activity of indolmycin precluded testing of this hypothesis in the indolmycin-sensitive trpRS1 null strain of S. coelicolor. The effects were measured in terms of changes in the chloramphenicol, erythromycin, and vancomycin MICs of the four strains over a range of sub-lethal indolmycin concentrations.
(§2) Streptomyces coelicolor strains were grown on DIFCO Nutrient Agar supplemented with indolmycin (0-100 μg/mL) and one of the following antibacterial agents: chloramphenicol (10-80 μg /mL), erythromycin (1-110 μg/mL), and vancomycin (30-140 μg/mL). The strains were grown on the media at 30° C. for 48 hours, after which point growth was assessed visually.
(§3) A 50 mg/mL (active enantiomer) stock solution of indolmycin was prepared by dissolving the indolmycin in DMSO. The concentrations of each stock solution reflect the actual concentration of the pharmacologically active substance. Aliquots of the stock solutions were added directly to molten, sterile DIFCO Nutrient Agar prior to solidification. Streptomyces coelicolor spores were directly spread onto the surface of each DNA plate and the plates were incubated at 30° C. for about 48 hours. Growth was assessed visually after the incubation period. Minimal inhibitory concentrations (MICs) reflect the drug concentrations at which no Streptomyces coelicolor growth was observed.
(§4) All Streptomyces strains were grown on Difco Nutrient Agar at 30° C. The MICs were assessed after 48 hours.

The test system of experiment [2] is Streptomyces coelicolor B728. Nature of the experiment: MIC on Difco Nutrient Agar with sub-lethal indolmycin, strain B728 (trpRS2 null). The class given is cell-based. On the procedure:
as §1, §2, §3, §4

In a further experiment the test system is S. coelicolor. The experiment can be described thus: Indolmycin MIC against S. coelicolor. The class given is cell-based, Streptomyces coelicolor. The settings on record: indolmycin alone.
Experiment [3] relates to methicillin-resistant Staphylococcus aureus. The settings on record: cited from earlier work.
The test system of another experiment is Helicobacter pylori. The settings on record: cited from earlier work.
Experiment [4] deals with tryptophanyl-tRNA synthetase (TrpRS1) (Streptomyces coelicolor, UniProt Q8CJX0). The settings on record: TrpRS1 of S. coelicolor, reference (19), cited from earlier work.
The mark [5] stands for this setting: strain M600, 0 μg/ml Indolmycin, read-out: MIC.
[6] abbreviates: strain M600, 10 μg/ml Indolmycin, read-out: MIC.
Setting [7] is: strain M600, 25 μg/ml Indolmycin, read-out: MIC.
Where [8] appears, read: strain M600, 50 μg/ml Indolmycin, read-out: MIC.
[9] abbreviates: strain M600, 75 μg/ml Indolmycin, read-out: MIC.
[10] abbreviates: strain M600, 100 μg/ml Indolmycin, read-out: MIC.
[11] abbreviates: Streptomyces coelicolor, B728, 48 h, strain B728, 0 μg/ml Indolmycin, 30° C., 48 hours.
[12] abbreviates: Streptomyces coelicolor, B728, 48 h, strain B728, 10 μg/ml Indolmycin, 30° C., 48 hours.
[13] abbreviates: Streptomyces coelicolor, B728, 48 h, strain B728, 25 μg/ml Indolmycin, 30° C., 48 hours.
Setting [14] is: Streptomyces coelicolor, B728, 48 h, strain B728, 50 μg/ml Indolmycin, 30° C., 48 hours.
[15] abbreviates: Streptomyces coelicolor, B728, 48 h, strain B728, 75 μg/ml Indolmycin, 30° C., 48 hours.
The mark [16] stands for this setting: Streptomyces coelicolor, B728, 48 h, strain B728, 100 μg/ml Indolmycin, 30° C., 48 hours.

Values after ≈ are worked out from the molar mass of the structure shown. Where two headings read alike, the source gives them in different places.

Sequence of tryptophanyl-tRNA synthetase (TrpRS1) (Q8CJX0 whole entry): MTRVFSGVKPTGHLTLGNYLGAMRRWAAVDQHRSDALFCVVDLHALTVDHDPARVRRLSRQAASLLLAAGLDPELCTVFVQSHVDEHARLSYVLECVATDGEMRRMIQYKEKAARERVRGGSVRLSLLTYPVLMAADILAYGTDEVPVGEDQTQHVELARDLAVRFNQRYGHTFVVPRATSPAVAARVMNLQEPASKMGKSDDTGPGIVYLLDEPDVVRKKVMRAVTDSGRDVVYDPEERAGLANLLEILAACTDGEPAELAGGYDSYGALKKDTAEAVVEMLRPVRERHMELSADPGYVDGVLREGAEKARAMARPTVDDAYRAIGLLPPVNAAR

With `CC[C@H]1OC(=O)[C@H](C)[C@@H](O[C@H]2C[C@@](C)(OC)[C@@H](O)[C@H](C)O2)[C@H](C)[C@@H](O[C@@H]2O[C@H](C)C[C@H](N(C)C)[C@H]2O)[C@](C)(O)C[C@@H](C)C(=O)[C@H](C)[C@@H](O)[C@]1(C)O` [Erythromycin, erythromycin], the MIC in experiment [1] (setting [5]) was 110 µg/mL; in experiment [1] (setting [6]), 40 µg/mL; in experiment [1] (setting [7]), 30 µg/mL; in experiment [1] (setting [8]) it was 15 µg/mL; in experiment [1] (setting [9]), 10 µg/mL; in experiment [1] (setting [10]), 5 µg/mL. For the same compound, the minimal inhibitory concentration (MIC) in experiment [2] (setting [11]) came to 70 µg/mL; in experiment [2] (setting [12]) it was 50 µg/mL; in experiment [2] (setting [13]), 30 µg/mL; in experiment [2] (setting [14]) it was 20 µg/mL; in experiment [2] (setting [15]) it was 10 µg/mL; in experiment [2] (setting [16]), 5 µg/mL.

As for `CN=C1NC(=O)[C@H]([C@H](C)c2c[nH]c3ccccc23)O1` [indolmycin], the MIC was > 500 µg/mL in the experiment with S. coelicolor, 0.5 µg/mL (≈ 1.94 µM) in experiment [3] and 0.016 µg/mL (≈ 0.0622 µM) in the experiment on Helicobacter pylori. Moreover, the values for the inhibition constant (Ki) in experiment [4] and in experiment [4] (listed as Indolmycin) were 900 nM and ~900 nM, respectively.

On to `CN[C@H](CC(C)C)C(=O)N[C@H]1C(=O)N[C@@H](CC(N)=O)C(=O)N[C@H]2C(=O)N[C@H]3C(=O)N[C@H](C(=O)N[C@H](C(=O)O)c4cc(O)cc(O)c4-c4cc3ccc4O)[C@H](O)c3ccc(c(Cl)c3)Oc3cc2cc(c3O[C@@H]2O[C@H](CO)[C@@H](O)[C@H](O)[C@H]2O[C@H]2C[C@](C)(N)[C@H](O)[C@H](C)O2)Oc2ccc(cc2Cl)[C@H]1O` [Vancomycin, vancomycin], for which the MIC in experiment [1] (strain M600, 0 μg/ml Indolmycin) was 110 µg/mL; in experiment [1] (strain M600, 10 μg/ml Indolmycin) it was 110 µg/mL; in experiment [1] (strain M600, 25 μg/ml Indolmycin), 110 µg/mL; in experiment [1] (strain M600, 50 μg/ml Indolmycin), 110 µg/mL; in experiment [1] (strain M600, 75 μg/ml Indolmycin), 110 µg/mL; in experiment [1] (strain M600, 100 μg/ml Indolmycin), 70 µg/mL. Besides, the MIC turned out to be 130 µg/mL in experiment [2] (Streptomyces coelicolor, B728, 48 h); 130 µg/mL in experiment [2] (strain B728, 10 μg/ml Indolmycin, 30° C., 48 hours); 130 µg/mL in experiment [2] (strain B728, 25 μg/ml Indolmycin, 30° C., 48 hours); 130 µg/mL in experiment [2] (strain B728, 50 μg/ml Indolmycin, 30° C., 48 hours); 130 µg/mL in experiment [2] (strain B728, 75 μg/ml Indolmycin, 30° C., 48 hours); 130 µg/mL in experiment [2] (strain B728, 100 μg/ml Indolmycin, 30° C., 48 hours). Besides, the “more sensitive in the presence of indolmycin” value in experiment [1] (strain M600, about 100 μg/mL indolmycin) stood at 1.6 times.

On to `O=C(N[C@H](CO)[C@H](O)c1ccc([N+](=O)[O-])cc1)C(Cl)Cl` [Chloramphenicol, chloramphenicol], for which the MIC in experiment [1] (setting [5]) worked out at 80 µg/mL; in experiment [1] (setting [6]) it was 35 µg/mL; in experiment [1] (setting [7]), 25 µg/mL; in experiment [1] (setting [8]), 20 µg/mL; in experiment [1] (setting [9]), 15 µg/mL; in experiment [1] (setting [10]) it was 10 µg/mL. Further, the MIC in experiment [2] (setting [11]) amounted to 60 µg/mL; in experiment [2] (setting [12]), 40 µg/mL; in experiment [2] (setting [13]) it was 30 µg/mL; in experiment [2] (setting [14]), 30 µg/mL; in experiment [2] (setting [15]) it was 20 µg/mL; in experiment [2] (setting [16]) it was 20 µg/mL. Also, the MIC was reduced in experiment [1] (wild-type S. coelicolor, media supplemented with indolmycin) came out at 10 fold.

As a reminder, the MIC is the lowest concentration that inhibits growth of the organism. Broadly, the Ki is the equilibrium dissociation constant of an inhibitor or competing ligand from its target.
